Where two headings read alike, the source gives them in different places.
Key:
[1] = molecular target: angiotensin II AT1 receptor; experiment: Assay A: Angiotensin II binding activity, rat uterine membrane preparation, 125I-AII displacement
Experimental: Assay A: Antiotensin II Binding Activity
Compounds of the invention were tested for ability to bind to the smooth muscle angiotensin II receptor using a rat uterine membrane preparation. […] Rat uterine membranes were prepared from fresh tissue. All procedures were carried out at 4° C. Uteri were stripped of fat and homogenized in phosphate-buffered saline at pH 7.4 containing 5 mM EDTA. The homogenate was centrifuged at 1500×g for 20 min., and the supernatant was recentrifuged at 100,000×g for 60 min. The pellet was resuspended in buffer consisting of 2 mM EDTA and 50 mM Tris-HCl (pH 7.5) to a final protein concentration of 4 mg/ml. […] The reaction was initiated by the addition of membrane protein and the mixture was incubated at 25° C. for 60 min. The incubation was terminated with ice-cold 50 mM Tris-HCl (pH 7.5) and the mixture was filtered to separate membrane-bound labelled peptide from the free ligand. The incubation tube and filter were washed with ice-cold buffer. Filters were assayed for radioactivity in a Micromedic gamma counter. Nonspecific binding was defined as binding in the presence of 10 μM of unlabelled AII. Specific binding was calculated as total binding minus nonspecific binding. […] Binding data were analyzed by a nonlinear least-squares curve fitting program.

[2] = tested on: pressor response to AII; experiment: Assay C: In vivo intragastric pressor assay response for AII antagonists; parameters: species or system Sprague-Dawley rats; settings: for inhibition in vivo at 30 mg/kg: read-out: Assay C Inhibition
[3] = Rattus norvegicus, po, in vivo pressor response, 3 mg/kg intragastrically
[4] = in vivo pressor response, 3 mg/kg intragastrically
[5] = Rattus norvegicus, intraduodenal, in vivo pressor response, 30 mg/kg intraduodenally
[6] = in vivo pressor response, 30 mg/kg intraduodenally

CCCCc1cn(-c2c(OC)cccc2OC)c(=O)n1Cc1ccc(-c2ccccc2-c2nnn[nH]2)nc1 [Compound 241]
IC50 [1]: 6.9 nM
inhibition in vivo at 3 mg/kg [2, 3]: 40%
Assay C Duration [2, 4]: >180 min

CCCCc1cn(CCCC)c(=O)n1Cc1ccc(-c2cccnc2-c2nnn[nH]2)cc1 [Compound 238]
IC50 [1]: 1.7 nM
inhibition in vivo at 3 mg/kg [2, 3]: 15%
Assay C Duration [2, 4]: >180 min

CCCCc1cn(CCC2CC2)c(=O)n1Cc1ccc(-c2ccccc2-c2nnn[nH]2)nc1 [Compound 217]
IC50 [1]: 9.4 nM
inhibition in vivo at 3 mg/kg [2, 3]: 65%
Assay C Duration [2, 4]: >180 min

CCOC(=O)[C@@H]1CC2=CC(=O)CC[C@]2(C)C23O[C@@H]2C[C@@]2(C)[C@@H](CC[C@@]24CCC(=O)O4)[C@H]13 (stereo partly drawn) [Compound 10]
IC50 [1]: 4.9 nM
inhibition in vivo at 3 mg/kg ([2]; Rattus norvegicus, intraduodenal, in vivo pressor response, 3 mg/kg intraduodenally): 86%
inhibition in vivo at 30 mg/kg [2, 5]: 100%
Assay C Duration ([2]; in vivo pressor response, 3 mg/kg intraduodenally): 100 min
Assay C Duration [2, 6]: 240 min

CCCCc1nc(CCCC)n(Cc2ccc(-n3ccc(-c4nnn[nH]4)c3)cc2)n1 [Compound 153]
IC50 [1]: 13 nM
inhibition in vivo at 3 mg/kg [2, 3]: 25%
Assay C Duration [2, 4]: >180 min

CCCCn1nc(C(C)(F)F)nc1Cc1ccc(-c2ccccc2-c2nnn[nH]2)nc1 [Compound 177]
IC50 [1]: 26 nM
inhibition in vivo at 3 mg/kg [2, 3]: 15%
Assay C Duration [2, 4]: 180 min

COC(=O)[C@@H]1CC2=CC(=O)CC[C@]2(C)C23O[C@@H]2C[C@@]2(C)[C@@H](CC[C@@]2(O)CCC(=O)O)[C@H]13.[K+] (stereo partly drawn) [Compound 5]
IC50 [1]: 200 nM
inhibition in vivo at 30 mg/kg ([2]; Rattus norvegicus, intraduodenal): 38%
Assay C Duration [2, 6]: 20 to 30 min

CCCn1nc(C(F)(F)CCC)nc1Cc1ccc(-c2ccccc2-c2nnn[nH]2)nc1 [Compound 180]
IC50 [1]: 20 nM
inhibition in vivo at 3 mg/kg [2, 3]: 25%
Assay C Duration [2, 4]: 180 min

CCCCc1cn(CC(C)C)c(=O)n1Cc1ccc(-c2ccccc2-c2nnn[nH]2)nc1 [Compound 208]
IC50 [1]: 22 nM
inhibition in vivo at 3 mg/kg [2, 3]: 50%
Assay C Duration [2, 4]: >180 min

CCCCc1cn(-c2ccccc2C)c(=O)n1Cc1ccc(-c2ccccc2-c2nnn[nH]2)nc1 [Compound 228]
IC50 [1]: 4.5 nM
inhibition in vivo at 3 mg/kg [2, 3]: 80%
Assay C Duration [2, 4]: >180 min

CCCCn1cc(CCC(C)C)n(Cc2ccc(-c3ccccc3-c3nnn[nH]3)nc2)c1=O [Compound 200]
IC50 [1]: 20 nM
inhibition in vivo at 3 mg/kg [2, 3]: 45%
Assay C Duration [2, 4]: >180 min

CCCCn1nc(C(C)(OC)OC)nc1Cc1ccc(-c2ccccc2-c2nnn[nH]2)nc1 [Compound 193]
IC50 [1]: 11 nM
inhibition in vivo at 3 mg/kg [2, 3]: 10%
Assay C Duration [2, 4]: 180 min

CCCCc1cn(CCc2ccccc2)c(=O)n1Cc1ccc(-c2ccccc2-c2nnn[nH]2)nc1 [Compound 221]
IC50 [1]: 4.8 nM
inhibition in vivo at 3 mg/kg [2, 3]: 25%
Assay C Duration [2, 4]: >180 min

CCCCc1nc(-c2ccccc2C)nn1Cc1ccc(-c2ccccc2-c2nnn[nH]2)nc1 [Compound 272]
IC50 [1]: 97 nM
inhibition in vivo at 3 mg/kg [2, 3]: 70%
Assay C Duration [2, 4]: >180 min

CCCCc1cn(CCC2=CCCC2)c(=O)n1Cc1ccc(-c2ccccc2-c2nnn[nH]2)nc1 [Compound 223]
IC50 [1]: 14 nM
inhibition in vivo at 3 mg/kg [2, 3]: 20%
Assay C Duration [2, 4]: >180 min

CCCCc1cn(-c2cccn2CC)c(=O)n1Cc1ccc(-c2ccccc2-c2nnn[nH]2)nc1 [Compound 249]
IC50 [1]: 4.4 nM
inhibition in vivo at 3 mg/kg [2, 3]: 20%
Assay C Duration [2, 4]: >180 min

C[C@]12CCC(=O)C=C1C1CC1[C@H]1[C@@H]3CC[C@@]4(CCC(=O)O4)[C@@]3(C)CC3O[C@]312 (stereo partly drawn) [Compound 9]
IC50 [1]: 700 nM
inhibition in vivo at 30 mg/kg [2, 5]: 80%
inhibition in vivo at 100 mg/kg ([2]; Rattus norvegicus, intraduodenal, in vivo pressor response, 100 mg/kg intraduodenally): 100%
Assay C Duration [2, 6]: 75 min
Assay C Duration ([2]; in vivo pressor response, 100 mg/kg intraduodenally): 130 min

CCn1nc(C(C)(F)F)nc1Cc1ccc(-c2ccccc2-c2nnn[nH]2)nc1 [Compound 175]
IC50 [1]: 27 nM
inhibition in vivo at 3 mg/kg [2, 3]: 0%
Assay C Duration [2, 4]: 0 min

CCCCc1nc2c(O)nnc(CCC)c2n1Cc1ccc(-c2ccccc2-c2nnn[nH]2)cc1 [Compound 125]
inhibition in vivo at 3 mg/kg [2, 3]: 35%
Assay C Duration [2, 4]: >240 min

— patent US20040102423A1, “Spironolactone and angiotensin II antagonist combination therapy for treatment of congestive heart failure” (G.D. Searle & Co., priority 1995, published 2004)
